“Also recorded” adds a separate entry of the source.
How the values were obtained:
Assay type in all cases: cell-based, mouse
CD11c^+αVβ3^+ microglia = assay: Ki-67 and TNF-α expression in microglia of 9-mo old WT mice incubated with rmOPN or αVβ3 inhibitor (flow cytometry); settings: 9-mo old WT mice microglia, 24 h with or without 12.5 μg/ml rmOPN or 10 μM cilengitide
Protocol: (A) Microglia isolated from P5 and 9-mo old WT, OPN-KO and OPN-i-KI mice were incubated×1 h with […] pHrodo Green-labeled synaptosomes per 1×10^5 cells followed by flow cytometry analysis of CD11c^+ microglial engulfment of synaptosomes. CD11c^+ microglia from P5, but not 9-mo old WT mice, were highly phagocytic for engulfing synaptosomes in vitro. […] (C) CD11c^+ microglia expressed high levels of proliferation marker Ki-67 early in development (P5). OPN-s, but not OPN-i deficiency decreased Ki-67 expression in CD11c^+ microglia (n=3). *p<0.05 by one-way ANOVA with Bonferroni's multiple comparisons test. […] (E) Microglia isolated from 9-mo old WT mice were incubated×24 h with or without 12.5 μg/ml recombinant mouse OPN (rmOPN) or 10 μM αVβ3 inhibitor (cilengitide) followed by flow cytometry analysis of proliferation marker Ki-67. […] (G) Microglia isolated from 9-mo old WT mice were incubated×24 h with or without 12.5 μg/ml recombinant mouse OPN (rmOPN) or 10 μM αVβ3 inhibitor (cilengitide) followed by flow cytometry analysis of TNF-α expression. […] Data are shown as mean±s.e.m.
Microglial staining for flow cytometry analysis. Microglia were stained with Ghost dye Violet 510 (1:1000, Tonbo Biosciences) to exclude dead cells followed by Fc receptor blocking using CD16/CD32 antibody (1:100, BD Biosciences) to avoid non-specific staining. Appropriate microglial surface markers were used for staining, including anti-CD11b (1:100 Biolegend), anti-CD45 (1:100 Biolegend), anti-CD11c (1:50 Biolegend), anti-CD36 (1:100, Biolegend), anti-CD209a (1:100, Biolegend), anti-αV integrin (1:50, Biolegend), anti-β3 integrin (1:50, Biolegend), anti-CD86 (1:100, Biolegend), and anti-MHC II (1:100, Biolegend), followed by fixation and permeabilization for subsequent intracellular staining with anti-OPN (1:10, R&D Systems), anti-TNF-α (1:50, Biolegend) and intranuclear staining with anti-Ki-67 (1:100, Biolegend).

[1] = test system: CD11c^+ microglia of 9-mo old OPN-KO.5XFAD mice; assay: In vitro microglia assay: impact of OPN-αVβ3 interaction on CD11c^+ microglial TNF-α production; settings: 9-mo old OPN-KO.5XFAD microglia, Cilengitide 10 μM 1 h pre-incubation, then rmOPN 12.5 pg/ml, 24 h
Protocol: (a) Representative flow cytometry plots and quantification of TREM2 mean fluorescence intensity (MFI) in CD11c^+ OPN^+ and CD11c^+ OPN^− microglial subsets of 9-mo old 5XFAD mice. […] Statistical analysis was performed by two-tailed Student's t test. (b) Representative flow cytometry plots of TNF-α and TREM2 expression in CD11c^− OPN^− microglial subset of 9-mo old 5XFAD mice. CD11c^− OPN^− microglia expressed low level of TNF-α and negligible level of TREM2. The plots were representative results from 3 independent experiments. (c) Microglial expression of canonical OPN receptors in 5XFAD mice at different stages of disease. […] The histogram of CD44 and the contour plot of αVβ3 and αVβ5 were the representative results from 3 independent experiments. (d) The impact of OPN-αVβ3 interaction on CD11c^+ microglial production of TNF-α. […] (e) Representative flow cytometry plots and quantification of TREM2 MFI in CD11c^+ microglia of 9-mo old 5XFAD and OPN-KO.5XFAD mice (n=3). […] Two-tailed Student's t test was performed for statistical analysis.
To test the impact of OPN-αVβ3 interaction on CD11c^+ microglial pro-inflammatory response, microglia were enriched by anti-CD11b microbeads (purity >95%, Miltenyi) from 9-mo old OPN-KO.5XFAD mice and were seeded into 12-well plates at 3×10^5 cells/well in conventional microglia culture medium (DMEM-F12 with 10% fetal bovine serum+1% penicillin/streptomycin+10 ng/ml recombinant mouse M-CSF). Microglia were pre-incubated with a selective αVβ3 inhibitor, Cilengitide (10 μM) for 1 h followed by the addition of 12.5 pg/ml recombinant mouse OPN (rmOPN) and cultured for 24 h before analysis of CD11c^+ microglial expression of TNF-α by flow cytometry.

Caspase-1 = assay: Microglial inflammasome activation: intracellular Caspase-1 activity (bioluminescent Caspase-Glo 1 assay); settings: LPS 100 ng/ml 3 h + Aβ1-42 fibrils 10 μM overnight; microglia from 9-mo 5XFAD and OPN-KO.5XFAD mice; rmOPN 12.5 pg/ml, Cilengitide 10 μM
Protocol: (§1) Intracellular Caspase-1 activity was measured by bioluminescent assay of microglia from 9-month-old 5XFAD mice. Detection of the specificity of Caspase-1 activity was confirmed by a selective Caspase-1 inhibitor (Ac-YVAD-CHO (SEQ ID NO: 13), 1 μM). Bar plots are representative results from three independent experiments. […] Activation of Caspase-1 and IL1β by provision of rmOPN was blocked following provision of αVβ3 inhibitor to microglia from 9-mo old 5XFAD and OPN-KO.5XFAD mice (n=3). ****p<0.0001, ***p<0.001, **p<0.01, *p<0.05, ns: not significant by one-way ANOVA with Bonferroni's multiple comparisons test. U.D. undetectable.
(§2) In these studies, microglia isolated from 9-mo old 5XFAD and OPN-KO.5XFAD mice were seeded into 96-well plates at 6×10^4 cells/well in conventional microglia culture medium (DMEM-F12 with 10% fetal bovine serum+1% penicillin/streptomycin+10 ng/ml recombinant mouse M-CSF). […] Microglial intracellular Caspase-1 activity was analyzed by the bioluminescent Caspase-Glo® 1 Inflammasome Assay Kit (Promega) per the manufacturer's instruction. […] Culture medium was collected for quantitative determination of microglial […] DuoSet ELISA kit (R&D Systems) according to the manufacturer's instructions.

IL-1β = assay: Microglial inflammasome activation: IL-1β production (ELISA of culture medium); settings: LPS 100 ng/ml 3 h + Aβ1-42 fibrils 10 μM overnight; microglia from 9-mo 5XFAD and OPN-KO.5XFAD mice; rmOPN 12.5 pg/ml, Cilengitide 10 μM
Protocol: as §1, §2

Row | Molecule | Ki-67 expression in CD11c^+αVβ3^+ microglia (CD11c^+αVβ3^+ microglia) | TNF-α expression in CD11c^+αVβ3^+ microglia (CD11c^+αVβ3^+ microglia) | TNF-α production by CD11c^+ microglia [1] | TNF-α production by CD11c^+ microglia ([1]; listed as αVβ3 inhibitor) | microglial intracellular Caspase-1 activity (Caspase-1) | microglial IL-1β production (IL-1β)
1 | CC(C)[C@H]1C(=O)N[C@@H](CCCN=C(N)N)C(=O)NCC(=O)N[C@@H](CC(=O)O)C(=O)N[C@H](Cc2ccccc2)C(=O)N1C [Cilengitide] | markedly reduced; also recorded: fully abrogated | fully abolished | abolished | fully abrogated | blocked | blocked
2 | rmOPN: recombinant mouse OPN (osteopontin) | enhanced Ki-67 expression | Upregulation of TNF-α expression | induced TNF-α expression; also recorded: Upregulated TNF-α production | – | substantially increased; also recorded: Activation | substantially increased; also recorded: Activation
